The target of experiment [1] is cellular kallikrein activity (Homo sapiens (Human), UniProt P03952). Put plainly: In vitro cellular assay (contact assay): kallikrein activity in ellagic acid-activated human plasma, Z-FR-2-AMC substrate. It is filed as biochemical. Conditions: human plasma activated with ellagic acid, 37° C. The method, then:
The ability of the compounds disclosed herein to inhibit cellular kallikrein activity was quantified and the respective EC50 value was determined.
All dilutions were prepared in an assay buffer comprising 50 mM Tris-HCl pH 7.2, 150 mM NaCl, and 0.01% Triton X-100.
The ten solutions of the test compounds, prepared by serial dilution, were further diluted 50-fold in the assay buffer.
Human plasma is thawed on ice and centrifuged for 15 min at 4° C. to remove platelets. A 1 mM stock solution of ellagic acid is diluted to 8 μM and mixed with human plasma, after removing platelets, at a ratio of 1:0.8.
A 22.5 μL volume of the final mixture of human plasma and ellagic acid was added to a 96-well microwell plate and the plate was incubated for 15 min at 37° C.
The CINH inhibitor at various concentrations, prepared by serial dilutions as described above, were added to the inhibitor control wells. […] Each CINH concentration is tested in duplicates.
The test compounds at various concentrations, also prepared by serial dilutions as described above, are added to the test wells. […] Each test compound concentration was tested in duplicates.
In addition to the inhibitor control and test wells, the 96 well assay plate includes positive control wells which contained the mixture of human plasma and ellagic acid without C1NH inhibitor or test compounds, and background wells which contained neither the mixture of human plasma and ellagic acid nor the test compounds. The total volume of liquid in positive control and background wells was brought up to 35 μL, using the assay buffer.
The assay plate containing C1NH inhibitors and test compounds mixed with human plasma and ellagic acid and appropriate controls was incubated at 37° C. for 5 min. […] The reagents were mixed well by shaking the plate gently for 30 sec.
The enzyme reaction was quantified by immediate kinetic reading of the assay plate using excitation/emission wavelengths of 330 nm/440 nm respectively. Fluorescence intensity was recorded for 60 min, using a time interval of 43 sec.
The inhibition activity of the test compounds were evaluated using the EC50 values, calculated according to the dose-response curve of the test compounds, fitted using the “log(inhibitor)−response (variable slope)” equation in GraphPadPrism software (GraphPad Software, Inc.).
The percentage inhibition was calculated using the following equation:
[formula] where, Mean (BG) is the average value of the fluorescence intensity of the background wells and Mean (PC) is the average value of the fluorescence intensity of the positive control wells.
Table 4 provides the EC50 values of various compounds disclosed herein.

In experiment [2] the target is human plasma kallikrein (Homo sapiens (Human), UniProt P03952). Put plainly: In vitro enzyme inhibition of human plasma kallikrein (PFR-AMC cleavage). In kind it is biochemical. The conditions noted are these: Pro-Phe-Arg-AMC substrate, 37° C., read-out: hPK IC50. Put shortly:
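Human plasma kallikrein and compound, diluted in 50 mM Tris-HCl pH 7.5, 150 mM NaCl, 0.01% Triton X-100, preincubated 5 min at 37 °C before PFR-AMC was added.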

Bounds are passed on as bounds.

human plasma kallikrein, sequence (P03952 391-638): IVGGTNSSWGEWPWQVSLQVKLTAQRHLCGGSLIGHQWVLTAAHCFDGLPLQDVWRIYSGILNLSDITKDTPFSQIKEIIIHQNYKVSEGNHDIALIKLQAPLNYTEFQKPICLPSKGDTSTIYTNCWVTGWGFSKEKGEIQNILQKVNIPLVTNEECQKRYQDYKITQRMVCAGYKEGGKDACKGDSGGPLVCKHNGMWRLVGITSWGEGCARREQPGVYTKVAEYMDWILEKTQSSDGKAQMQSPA
human plasma kallikrein, sequence (P03952 20-390 partner): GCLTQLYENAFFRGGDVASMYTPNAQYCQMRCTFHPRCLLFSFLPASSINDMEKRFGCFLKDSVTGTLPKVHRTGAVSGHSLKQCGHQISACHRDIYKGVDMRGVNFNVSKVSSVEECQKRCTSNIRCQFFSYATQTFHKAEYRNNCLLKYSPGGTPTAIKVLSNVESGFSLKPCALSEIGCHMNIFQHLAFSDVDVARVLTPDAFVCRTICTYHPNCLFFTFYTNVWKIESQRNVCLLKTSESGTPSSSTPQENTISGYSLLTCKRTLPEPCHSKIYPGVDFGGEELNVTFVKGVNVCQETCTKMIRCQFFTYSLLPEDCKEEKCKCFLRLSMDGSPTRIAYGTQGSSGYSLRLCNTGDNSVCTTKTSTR
cellular kallikrein activity, sequence (P03952 391-638): as the sequence (P03952 391-638) above
cellular kallikrein activity, sequence (P03952 20-390 partner): as the sequence (P03952 20-390 partner) above

The molecule `Cc1cc(N)nc(C)c1CNC(=O)c1ccnc(Cc2cc(S(N)(=O)=O)c3ncc(Cl)cc3c2)c1` [Example 235, N-((6-amino-2,4-dimethylpyridin-3-yl)methyl)-2-((3-chloro-8-sulfamoylquinolin-6-yl)methyl)isonicotinamide] gave an EC50 in experiment [1] of less than 100 nM. Further, the IC50 in experiment [2] is less than 100 nM.

In experiment [1], `CC(C)(O)c1cc(Cc2cc(C(=O)NCc3cc4c(Cl)c[nH]c4cc3F)ccn2)cc2cc(Cl)cnc12` [Example 221, N-((3-chloro-6-fluoro-1H-indol-5-yl)methyl)-2-((3-chloro-8-(2-hydroxypropan-2-yl)quinolin-6-yl)methyl)isonicotinamide] came in with an EC50 of 100 to 1000 nM. Also, the IC50 in experiment [2] was less than 100 nM.

`Cc1nc(N)ccc1CNC(=O)c1ccnc(Cc2cc3cc(Cl)cnc3cn2)c1` [Example 149, N-((6-amino-2-methylpyridin-3-yl)methyl)-2-((3-chloro-1,7-naphthyridin-6-yl)methyl)isonicotinamide] yielded an EC50 in experiment [1] of less than 100 nM. Also, in experiment [2], the IC50 is less than 100 nM.

`COC(=O)c1cc(Cc2cc(C(=O)NCc3c(C)cc(N)nc3C)ccn2)cc2cc(Cl)cnc12` [Example 92, methyl 6-((4-(((6-amino-2,4-dimethylpyridin-3-yl)methyl)carbamoyl)pyridin-2-yl)methyl)-3-chloroquinoline-8-carboxylate]: in experiment [1], the EC50 was less than 100 nM. In experiment [1], `Cc1cc(N)nc(C)c1CNC(=O)c1ccnc(Cc2ccc3ncc(C(C)C)cc3c2)c1` [Example 254, N-((6-amino-2,4-dimethylpyridin-3-yl)methyl)-2-((3-isopropylquinolin-6-yl)methyl)isonicotinamide] registered an EC50 of less than 100 nM. In experiment [2], the IC50 is less than 100 nM. Molecule `Cc1nc(N)ccc1CNC(=O)c1ccnc(Cc2cc(Cl)c3ncc(Cl)cc3c2)c1` [Example 101, N-((6-amino-2-methylpyridin-3-yl)methyl)-2-((3,8-dichloroquinolin-6-yl)methyl)isonicotinamide] returned an EC50 in experiment [1] of less than 100 nM. Regarding `Cc1cc2c(N)nccc2cc1CNC(=O)c1ccnc(Cc2ccc3ncc(Cl)cc3c2)c1` [Example 181, N-((1-amino-7-methylisoquinolin-6-yl)methyl)-2-((3-chloroquinolin-6-yl)methyl)isonicotinamide], the EC50 in experiment [1] was less than 100 nM. For the same molecule, the IC50 in experiment [2] was less than 100 nM. Molecule `Cc1cc2c(N)nccc2cc1CNC(=O)c1ccnc(Cc2ccc3ncc(C(F)(F)F)cc3c2)c1` [Example 183, N-((1-amino-7-methylisoquinolin-6-yl)methyl)-2-((3-(trifluoromethyl)quinolin-6-yl)methyl)isonicotinamide] came in with an EC50 in experiment [1] of less than 100 nM. In addition, in experiment [2], the IC50 was less than 100 nM. Take `Cc1nc(N)ccc1CNC(=O)c1ccnc(Cc2cc(CN)c3ncc(Cl)cc3c2)c1` [Example 253, N-((6-amino-2-methylpyridin-3-yl)methyl)-2-((8-(aminomethyl)-3-chloroquinolin-6-yl)methyl)isonicotinamide]: the EC50 in experiment [1] is less than 100 nM. Moreover, the IC50 in experiment [2] is less than 100 nM. For `Nc1nc(C(F)(F)F)n2cc(CNC(=O)c3ccnc(Cc4ccc5ncc(Cl)cc5c4)c3)ccc12` [Example 186, N-((1-amino-3-(trifluoromethyl)imidazo[1,5-a]pyridin-6-yl)methyl)-2-((3-chloroquinolin-6-yl)methyl)isonicotinamide], the EC50 in experiment [1] was less than 100 nM. Moreover, the IC50 in experiment [2] is less than 100 nM. In turn, `Nc1nccc2cc(CNC(=O)c3ccnc(Cc4ccc5ncc(C6CC6)cc5c4)c3)ccc12` [Example 247, N-((1-aminoisoquinolin-6-yl)methyl)-2-((3-cyclopropylquinolin-6-yl)methyl)isonicotinamide] had an EC50 in experiment [1] of less than 100 nM. The IC50 in experiment [2] was less than 100 nM.

In experiment [1], `Cc1cnc2c(S(N)(=O)=O)cc(Cc3cc(C(=O)NCc4n[nH]c5ccc(Cl)cc45)ccn3)cc2c1` [Example 288, N-((5-chloro-1H-indazol-3-yl)methyl)-2-((3-methyl-8-sulfamoylquinolin-6-yl)methyl)isonicotinamide] registered an EC50 of 100 to 1000 nM. Further, the IC50 in experiment [2] is less than 100 nM. The matching figures for `CCc1cnc2ccc(Cc3cc(C(=O)NCc4c(C)cc(N)nc4C)ccn3)cc2c1` [Example 286, N-((6-amino-2,4-dimethylpyridin-3-yl)methyl)-2-((3-ethylquinolin-6-yl)methyl)isonicotinamide]: less than 100 nM and less than 100 nM.

With `CC(C)(O)c1cc(Cc2cc(C(=O)NCc3cnc4[nH]cc(Cl)c4c3)ccn2)cc2cc(Cl)cnc12` [Example 223, N-((3-chloro-1H-pyrrolo[2,3-b]pyridin-5-yl)methyl)-2-((3-chloro-8-(2-hydroxypropan-2-yl)quinolin-6-yl)methyl)isonicotinamide], the EC50 in experiment [1] was less than 100 nM. Moreover, the IC50 in experiment [2] is less than 100 nM.

On to `COc1cnc2ccc(Cc3cc(C(=O)NCc4c(C)cc(N)nc4C)ccn3)cc2c1` [Example 264, N-((6-amino-2,4-dimethylpyridin-3-yl)methyl)-2-((3-methoxyquinolin-6-yl)methyl)isonicotinamide], for which the half-maximal effective concentration (EC50) in experiment [1] is less than 100 nM. In addition, in experiment [2], the IC50 was less than 100 nM. With `CCCc1cnc2ccc(Cc3cc(C(=O)NCc4c(C)cc(N)nc4C)ccn3)cc2c1` [Example 255, N-((6-amino-2,4-dimethylpyridin-3-yl)methyl)-2-((3-propylquinolin-6-yl)methyl)isonicotinamide], the EC50 in experiment [1] is less than 100 nM. For the same molecule, the IC50 in experiment [2] was less than 100 nM.

As to `Nc1nccc2c(F)c(CNC(=O)c3ccnc(Cc4ccc5ncc(Cl)cc5c4)c3)ccc12` [Example 178, N-((1-amino-5-fluoroisoquinolin-6-yl)methyl)-2-((3-chloroquinolin-6-yl)methyl)isonicotinamide], the EC50 in experiment [1] was less than 100 nM. Further, the IC50 in experiment [2] is less than 100 nM.

In the case of `O=C(NCc1cc2c(Cl)c[nH]c2cc1F)c1ccnc(Cc2ccc3ncc(C(F)(F)F)cc3c2)c1` [Example 230, N-((3-chloro-6-fluoro-1H-indol-5-yl)methyl)-2-((3-(trifluoromethyl)quinolin-6-yl)methyl)isonicotinamide], the concentration for a half-maximal effect (EC50) in experiment [1] was in the range of 100 to 1000 nM. In addition, in experiment [2], the IC50 is less than 100 nM. In turn, `Cc1cc(N)nc(C)c1CNC(=O)c1ccnc(Cc2ccc3c(cc(Cl)c[n+]3[O-])c2)c1` [Example 99, 6-((4-(((6-amino-2,4-dimethylpyridin-3-yl)methyl)carbamoyl)pyridin-2-yl)methyl)-3-chloroquinoline 1-oxide] gave an EC50 in experiment [1] of less than 100 nM. Take `Cc1cc(C(=O)NCc2c(C)cc(N)nc2C)cc(Cc2ccc3ncc(Cl)cc3c2)n1` [Example 104, N-((6-amino-2,4-dimethylpyridin-3-yl)methyl)-2-((3-chloroquinolin-6-yl)methyl)-6-methylisonicotinamide]: the EC50 in experiment [1] is less than 100 nM. Same read-out and setting: the same measure for `Cc1nc(N)ccc1CNC(=O)c1ccnc(Cc2cc(CO)c3ncc(Cl)cc3c2)c1` [Example 97, N-((6-amino-2-methylpyridin-3-yl)methyl)-2-((3-chloro-8-(hydroxymethyl)quinolin-6-yl)methyl)isonicotinamide]: less than 100 nM; for `Cc1cc(N)nc(C)c1CNC(=O)c1ccnc(Cc2cc(C(=O)O)c3ncc(Cl)cc3c2)c1` [Example 93, 6-((4-(((6-amino-2,4-dimethylpyridin-3-yl)methyl)carbamoyl)pyridin-2-yl)methyl)-3-chloroquinoline-8-carboxylic acid]: less than 100 nM; for `Cc1cc(N)nc(C)c1CNC(=O)c1cc(Cc2ccc3ncc(Cl)cc3c2)nc(C(=O)O)c1` [Example 209, 4-((6-amino-2,4-dimethylpyridin-3-yl)methylcarbamoyl)-6-((3-chloroquinolin-6-yl)methyl)picolinic acid]: 100 to 1000 nM.

`Cc1cc(N)nc(C)c1CNC(=O)c1ccnc(Cc2ccc3ncc(Cl)cc3c2F)c1` [Example 102, N-((6-amino-2,4-dimethylpyridin-3-yl)methyl)-2-((3-chloro-5-fluoroquinolin-6-yl)methyl)isonicotinamide] returned an EC50 in experiment [1] of 100 to 1000 nM. `Cc1nc(NCCO)ccc1CNC(=O)c1ccnc(Cc2ccc3ncc(Cl)cc3c2)c1` [Example 252, 2-((3-chloroquinolin-6-yl)methyl)-N-((6-((2-hydroxyethyl)amino)-2-methylpyridin-3-yl)methyl)isonicotinamide]: the IC50 in experiment [2] is greater than 10000 nM.

A word on the EC50: it is the concentration needed to bring the measured effect to its halfway point. One may read the IC50 as the concentration at which inhibition is half-maximal.
